Assay [1] has as its system rat femoral model of postmenopausal osteoporosis. Briefly: In vivo microCT static and dynamic histomorphometry around femoral screws in ovariectomized rats. The procedure:
The in vivo study in a rat femoral model of postmenopausal osteoporosis was performed following a well-established protocol. All animal procedures were approved by the local animal care and use committee (license no. 2508.1, EXPANIM, SCAV, Epalinges, Switzerland).
Eight virgin female Wistar rats (Janvier Labs, Saint-Berthevin, France) were ovariectomized bilaterally with a dorsal approach at an age of 17 weeks and a weight of 295±18 g to induce an estrogen deficiency related bone loss. The rats were housed 4 per cage under 12 h light to 12 h dark cycles at 22° C. room temperature with 55% humidity. They were fed with a standard rodent diet (KLIBA NAFAG 3436, Provimi Kliba AG, Switzerland) and tab water at libitum. […]
In vivo microCT scans (Skyscan 1076, Bruker microCT, Kontich, Belgium) of the right femur only were performed one day before OVX and one day before screw implantation in order to confirm the bone loss caused by the estrogen deficiency. […] The image taken for the evaluation of the bone loss and for dynamic histomorphometry were processed and analyzed using the softwares Amira® (FEI Vizualisation Sciences Group, Burlington, USA) and CTan (Bruker microCT, Kontich, Belgium). […] For an analysis of the spatio-temporal effect, the static and dynamic bone parameters were analyzed in 4 layers of 368 μm each around the screw. […]

For assay [2], the system named is RAW 264.7 murine macrophages. Briefly: Cell proliferation assay with RAW 264.7 macrophages (CellTiter 96 AQueous One Solution). Format: cell-based. The settings on record: Zoledronate concentrations from 0.16 to 40 μM.
Description: An aqueous Zoledronate solution with a concentration of 2 mg/ml was prepared and sterile filtered. The drug solution was diluted with CCM to a final concentration of 80 μM of Zoledronate. A further dilution with CCM gave Zoledronate supplemented medium (Zol-CCM) with concentrations of 80 μM, 40 μM, 20 μM, 10 μM, 5 μM, 2.5 μM and 1.25 μM. The dilution procedure was repeated with an aqueous dispersion containing 2 mg/ml Zoledronate and 20 mg/ml nHA (nHA-Zol-CCM). The macrophages were seeded with a density of 2500 cell per well in 96-well plates (Microtest™ 96, Becton Dickinson Labware, NJ, USA) and incubated with 100 μl CCM at standard incubation conditions (37° C., 5% CO2). After 24 h of incubation, 100 μl of CCM, Zol-CCM or nHA-Zol-CCM were added to the cells, the final Zoledronate concentrations in the CCM were therefore 40 μM, 20 μM, 10 μM, 5 μM, 2.5 μM, 1.25 μM and 0.625 μM. A cell proliferation assay (CellTiter 96® AQueous One Solution, Promega, Wis., USA) was performed after 24, 48 and 72 hours of cell exposure to the modified CCM. The absorbance was measured with a plate reader (Wallac 1420 Victor 2, Perkin Elmer, Waltham, Mass., USA). Background plates with only the modified media were measured at all time points to avoid a bias due to the nHA particles in the dispersions.
A further assay concerns peri-implant bone. The settings on record: Zoledronate locally delivered from a hyaluronic acid hydrogel; cited from earlier work.

Consider `O=P(O)(O)C(O)(Cn1ccnc1)P(=O)(O)O` [Zoledronate], for which, in assay [1] (between days 10 and 31, locally delivered), the bone resorption/demineralization peak result is “completely inhibited”. Moreover, the “resorption of bone and degradation of the biomaterial” value in assay [1] (later during the study) is “efficiently inhibited the resorption of present and newly formed bone”. Besides, the cell proliferation entry in assay [2] was “dose-depended proliferation decrease”. For the same compound, in the assay on peri-implant bone, the “increase of early bone formation rate” value is “up to 100%” and the peri-implant bone resorption entry was “efficiently inhibiting peri-implant bone resorption”.

Source of the values: patent US20170056559A1, “Active Agent-Particle Combination Supporting Bone Regeneration” (ECOLE POLYTECHNIQUE FEDERALE DE LAUSANNE (EPFL), priority 2014, published 2017).
